From ChEMBL document CHEMBL5729595, “MASP-2 inhibitors and methods of use” (2023)

Assay: Enzymatic Assay for MASP-2: The assay was run at room temperature in an assay buffer containing 20 mM Hepes, pH 7.4, 140 mM NaCl and 0.1% Tween 20. Assay parameters were adjusted such that the assay was linear with respect to time, enzyme and substrate concentrations. Under these optimized assays conditions, IC50 values were equivalent to Ki values, except in a few cases of “tight binding” inhibitors. Cases of “tight binding” or possible “slow binding” inhibitors were handled by the methods described in Copeland R. A. (2013) Evaluation of Enzyme Inhibitors in Drug Discovery. 2nd Ed., John Wiley and Sons, Inc., Chapters 5-7.

C[C@H](NC(=O)[C@H]1C[C@H](c2ccccc2)CCN1)C(=O)NCc1ccc(C(=N)N)cc1
Ki: < 500 nM
